Test results taken from ChEMBL document CHEMBL1158525, “New heteroaryl nitrones with spin trap properties: Identification of a 4-furoxanyl derivative with excellent properties to be used in biological systems” (Bioorg Med Chem, 2010).
Activity calls are given as the source filed them.

Key:
Type in all cases: functional
Conditions in all cases: Microsome
[1] = test system: Trypanosoma cruzi; assay: Antioxidant activity in Trypanosoma cruzi microsomes assessed as inhibition of NF-induced free radicals generation by EPR-based spin trap technique
[2] = test system: Trypanosoma cruzi; assay: Antioxidant activity in Trypanosoma cruzi microsomes assessed as inhibition of PtCl2(NF)-induced free radicals generation by EPR-based spin trap technique
[3] = test system: Trypanosoma cruzi; assay: Antioxidant activity in Trypanosoma cruzi microsomes assessed as inhibition of TBfx1-induced free radicals generation by EPR-based spin trap technique
[4] = test system: Trypanosoma cruzi; assay: Antioxidant activity in Trypanosoma cruzi microsomes assessed as inhibition of TBfx2-induced free radicals generation by EPR-based spin trap technique

Measured: Activity

Cc1c(/C=[N+](\[O-])C(C)(C)C)no[n+]1[O-]
active: [1] | [2] | [3] | [4]
